Laboratory results reported in US7968604B2, “Pharmaceutical composition for prevention and treatment of drug or alcohol addiction or bipolar disorder using sodium phenylbutyrate” (priority 2005, dated 2011).

Assays:
Assay type in all cases: in vivo, Sprague-Dawley rats
[1] = test system: cocaine-induced locomotor activity and rearing; assay: cocaine-induced (acute) locomotor activity and rearing in rats
Experimental: In order to examine effects of a pharmaceutical composition for prevention and treatment of drug or alcohol addiction or bipolar disorder containing sodium phenylbutyrate (PBA) in accordance with the present invention, the following animal experiments were carried out using Sprague-Dawley rats, weighing 250-275 g (upon arrival), (Samtaco Animal Breeding Company, Osan, Korea).
A bank of 12 activity boxes was used to measure locomotor activity of animals (Kim & Vezina, 1998). Each box (22×43×33 cm) estimated locomotor activity from photo beam interruptions. Rats were placed in the activity boxes for a 1-hour habituation period. Then, these rats were administered with the respective dosages of the pharmaceutical composition and were immediately placed again in the activity boxes, and locomotor activity and rearing activity of rats were measured for additional 2 hours. […] Rearing activity was also measured by counting upward/downward motion of rats via photo beams installed in the activity boxes. […]
Different concentrations (0.1, 1.0, 5.0 and 10.0 mg/kg) of sodium phenylbutyrate were intraperitoneally injected (acute) alone or in combination with cocaine (15 mg/kg) into rats, and locomotor activity and rearing of animals were measured for 2 hours. […]

[2] = test system: amphetamine-induced behavioral sensitization; assay: amphetamine-induced behavioral sensitization (chronic) in rats
Experimental: In order to examine effects of a pharmaceutical composition for prevention and treatment of drug or alcohol addiction or bipolar disorder containing sodium phenylbutyrate (PBA) in accordance with the present invention, the following animal experiments were carried out using Sprague-Dawley rats, weighing 250-275 g (upon arrival), (Samtaco Animal Breeding Company, Osan, Korea). A bank of 12 activity boxes was used to measure locomotor activity of animals (Kim & Vezina, 1998). Each box (22×43×33 cm) estimated locomotor activity from photo beam interruptions. Rats were placed in the activity boxes for a 1-hour habituation period. Then, these rats were administered with the respective dosages of the pharmaceutical composition and were immediately placed again in the activity boxes, and locomotor activity and rearing activity of rats were measured for additional 2 hours. Specifically, a computer was adapted to count locomotion of rats via photo beams installed on the top/bottom and right/left of the activity boxes, and such locomotion behavior of rats was confirmed for two hours. Rearing activity was also measured by counting upward/downward motion of rats via photo beams installed in the activity boxes. […]

[3] = test system: amphetamine-induced locomotor activity; assay: amphetamine-induced (acute) locomotor activity in rats
Experimental: In order to examine effects of a pharmaceutical composition for prevention and treatment of drug or alcohol addiction or bipolar disorder containing sodium phenylbutyrate (PBA) in accordance with the present invention, the following animal experiments were carried out using Sprague-Dawley rats, weighing 250-275 g (upon arrival), (Samtaco Animal Breeding Company, Osan, Korea). A bank of 12 activity boxes was used to measure locomotor activity of animals (Kim & Vezina, 1998). Each box (22×43×33 cm) estimated locomotor activity from photo beam interruptions. Rats were placed in the activity boxes for a 1-hour habituation period. Then, these rats were administered with the respective dosages of the pharmaceutical composition and were immediately placed again in the activity boxes, and locomotor activity and rearing activity of rats were measured for additional 2 hours. […] Rearing activity was also measured by counting upward/downward motion of rats via photo beams installed in the activity boxes. […] Similar to Example 1, different concentrations (0.1, 1.0 and 10.0 mg/kg) of sodium phenylbutyrate were intraperitoneally injected (acute) alone or in combination with amphetamine (1.5 mg/kg) into rats, and locomotor activity of animals was measured for 2 hours. […]

[4] = test system: locomotor activity; assay: locomotor activity after sodium phenylbutyrate alone daily for 7 days; details: rats, 0.1 and 1.0 mg/kg i.p. once a day for 7 days, measured day 1 and day 7
Experimental: In order to examine effects of a pharmaceutical composition for prevention and treatment of drug or alcohol addiction or bipolar disorder containing sodium phenylbutyrate (PBA) in accordance with the present invention, the following animal experiments were carried out using Sprague-Dawley rats, weighing 250-275 g (upon arrival), (Samtaco Animal Breeding Company, Osan, Korea). A bank of 12 activity boxes was used to measure locomotor activity of animals (Kim & Vezina, 1998). Each box (22×43×33 cm) estimated locomotor activity from photo beam interruptions. Rats were placed in the activity boxes for a 1-hour habituation period. Then, these rats were administered with the respective dosages of the pharmaceutical composition and were immediately placed again in the activity boxes, and locomotor activity and rearing activity of rats were measured for additional 2 hours. Specifically, a computer was adapted to count locomotion of rats via photo beams installed on the top/bottom and right/left of the activity boxes, and such locomotion behavior of rats was confirmed for two hours. Rearing activity was also measured by counting upward/downward motion of rats via photo beams installed in the activity boxes. […] On day 1 and day 7 of drug administration, locomotor activity of animals was measured. […]

## O=C(O)CCCc1ccccc1 [sodium phenylbutyrate]
[1]; i.p. acute, 0.1, 1.0, 5.0 and 10.0 mg/kg with cocaine 15 mg/kg, measured 2 hours
  effect on increase in cocaine-induced locomotor activity and rearing: reduce an increase in cocaine-induced locomotor activity and rearing of rats in a dose-dependent manner
[1]; i.p. acute, with cocaine 15 mg/kg
  dose at which effects on cocaine-induced locomotor activity and rearing were greatest: 1.0 mg/kg
[2]; rats, 0.1, 1.0 and 10.0 mg/kg with amphetamine 1.5 mg/kg four times at 2 to 3 day intervals, one-week withdrawal, amphetamine challenge
  effect on amphetamine-induced behavioral sensitization: significant blocking effects against amphetamine-induced behavioral sensitization
[2]; rats, repeated co-administration with amphetamine 1.5 mg/kg
  dose range at which blocking of behavioral sensitization was particularly strong: 0.1 to 1.0 mg/kg
[3]; i.p. acute, 0.1, 1.0 and 10.0 mg/kg with amphetamine 1.5 mg/kg, measured 2 hours
  effect on increase in amphetamine-induced locomotor activity: decrease an increase in amphetamine-induced locomotor activity
[3]; i.p. acute, with amphetamine 1.5 mg/kg
  dose range at which effects on amphetamine-induced locomotor activity were similarly exhibited: 0.1 to 10.0 mg/kg
[4]
  changes in locomotor activity on administration of sodium phenylbutyrate alone: does not result in any significant changes in locomotor activity of animals
